# According to patent US20080214445A1, “Method of Treating a Solid Tumor Disease Comprising Administering a Combination Comprising Imatinib and an Inhibitor of an Efflux Pump Active at the Blood Brain Barrier or Demethyl Imatinib” (priority 2005, published 2008):
# Experiments:
# [1] = biological target: T1, BCRP (Homo sapiens, UniProt Q9UNQ0); assay: BCRP efflux pump inhibition / transport
# T1 sequence (Q9UNQ0 1-655): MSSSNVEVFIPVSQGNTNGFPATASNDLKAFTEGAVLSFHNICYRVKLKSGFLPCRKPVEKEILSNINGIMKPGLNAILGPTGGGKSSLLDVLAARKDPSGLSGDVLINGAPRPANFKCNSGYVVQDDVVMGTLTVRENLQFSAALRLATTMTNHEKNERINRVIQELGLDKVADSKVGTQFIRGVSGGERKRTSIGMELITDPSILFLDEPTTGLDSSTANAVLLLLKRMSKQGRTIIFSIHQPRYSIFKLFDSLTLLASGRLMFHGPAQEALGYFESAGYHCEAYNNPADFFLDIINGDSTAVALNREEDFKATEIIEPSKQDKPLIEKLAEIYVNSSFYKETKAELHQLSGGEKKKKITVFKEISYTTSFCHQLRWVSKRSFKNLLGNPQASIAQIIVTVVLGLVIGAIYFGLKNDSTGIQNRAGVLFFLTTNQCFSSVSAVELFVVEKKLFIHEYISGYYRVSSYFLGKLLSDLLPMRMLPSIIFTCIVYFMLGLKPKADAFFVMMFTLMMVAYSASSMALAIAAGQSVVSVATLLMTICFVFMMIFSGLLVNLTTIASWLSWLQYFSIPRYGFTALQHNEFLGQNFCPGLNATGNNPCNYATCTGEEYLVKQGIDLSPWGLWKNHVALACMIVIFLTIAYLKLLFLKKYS
# [2] = tested on: Rat C6 glioma cells; assay: Accumulation of CGP74588 into rat C6 glioma cells; format: cell-based; conditions: for average fold increase of CGP74588 accumulation: 15 min pre-incubation, 1 min incubation with CGP74588, rat C6 cells
# Description: Rat C6 glioma cells are used as a model for glioma in in vitro or in vivo studies, to investigate the effect of this combination on cell proliferation.
# Rat C6 glioma cells are maintained in high glucose Dulbecco's modified medium supplemented with 10% fetal calf serum and […] L-Glutamine in a humidified atmosphere of 95% air-5% CO2. All accumulation assays are conducted on cultures at confluence. For this purpose, the cells are seeded on 24-well plates at a density of 100×10^3 cells/cm^2 and left to proliferate in culture medium for 48 h.
# For competition assays, the cultures are pre-incubated with various concentrations of the different competitors for 15 min. […] The cellular accumulation of 1.5 μM CGP74588 is also studied in C6 cells that have been pre-incubated with hydroxyurea (1, 10, 100 or 1000 μM) for 48 h.
# [3] = Hanover Wistar, rat, in vivo, iv
# Description: (§1) Blood, plasma, brain are collected for each animal.
# (§2) All samples are analyzed for total radioactivity by liquid scintillation counting (LSC). In brief, 50 μL blood samples are successively mixed and incubated with 0.5 mL Soluene 350-isopropanol 1:1 (v/v), 0.2 mL H2O2 30% (overnight), 0.5 mL HCl 2N (20 min) and 5 mL IrgaSafe (Packard) (overnight). 50 μL plasma samples are successively mixed and incubated with 0.5 mL Soluene 350-isopropanol 1:1 (v/v) (overnight), 0.5 mL HCl 2N (20 min) and 5 mL IrgaSafe (overnight). 250 μL brain homogenate samples are treated by 2 mL Soluene 350 (overnight), 0.5 mL HCl 2N (20 min) and 17.5 mL Irgasafe (overnight). All samples are counted in Tricarb liquid scintillation analyzers (Packard).
# (§3) All blood samples are spiked with 100 μL of water for hemolysis whereas all other samples are directly analyzed. […] The organic layer is separated and evaporated in a vacuum centrifuge. The residues are dissolved in 250 μL of acetonitrile-water (30:70 v/v) followed by 75 μl of n-hexane. […] The effluent is monitored by an UV-detector set at 270 nm.
# [4] = tested on: P-glycoprotein and Breast-Cancer Resistance Protein (suggested by experiments in mdr1a1b(-/-) mice); assay: in vivo; conditions: FVB, mouse
# [5] = in vivo; conditions: Hanover Wistar, rat, iv, 12.5 mg/kg
# Description: as §1, §2, §3
# [6] = FVB wild-type mice; co-perfusion of valspodar 10 μM with imatinib 0.5 μM
# [7] = Blood and brain pharmacokinetics in Hanover Wistar rats after intravenous [14C]STI571 with or without PSC833
# Description: as §1, §2, §3
# [8] = Concentration of STI571 in brain, Mean
# [9] = Concentration of STI571 in brain, individual data
structure (smiles),measurement,setting,value
"Cc1ccc(NC(=O)c2ccc(CN3CCNCC3)cc2)cc1Nc1nccc(-c2cccnc2)n1 [CGP74588, N-{5-[4-(piperazino-methyl)-benzoylamido]-2-methylphenyl}-4-(3-pyridyl)-2-pyrimidine-amine]",BCRP inhibition,[1],not
same,transport by efflux pump,[1],dominated by BCRP
same,accumulation in rat C6 cells,[2]; CGP74588 0.5-50 μM,concentration dependant
"Cl.Cl.Cl.O[C@@H](COc1cccc2ncccc12)CN1CCN(C2c3ccccc3[C@@H]3[C@H](c4ccccc42)C3(F)F)CC1 (stereo partly drawn) [zosuquidar, 1-[4-(1,1-difluor-1,1aR,6S,10bS-tetrahydrodibenzo[a,e]-cyclo-propa[c]cyclohepten-6-yl)piperazin-1-yl]-3-(chinolin-5-yloxy)-2(R)-propanol-trihydrochloride]",average fold increase of CGP74588 accumulation,[2]; inhibitor 1 μM,1.7 fold
same,average fold increase of CGP74588 accumulation,[2]; inhibitor 10 μM,2.3 fold
"Cc1ccc(NC(=O)c2ccc(CN3CCN(C)CC3)cc2)cc1Nc1nccc(-c2cccnc2)n1 [STI571, N-{5-[4-(4-methyl-piperazino-methyl)-benzoylamido]-2-methylphenyl}-4-(3-pyridyl)-2-pyrimidine-amine]",time post dose at which brain Cmax is reached,[3],15 min
same,Km,[4],5 to 10 µM
same,Cmax,[5],893 ng/g
same,Tmax,[5],15 min
same,concentration at 0.25 h,[5]; [8],893 ng/g
same,concentration at 0.5 h,[5]; [8],533 ng/g
same,concentration at 1 h,[5]; [8],550 ng/g
same,concentration at 2 h,[5]; [8],333 ng/g
same,concentration at 4 h,[5]; [8],115 ng/g
same,concentration at 8 h,[5]; [8],38 ng/g
same,concentration at 1 h,[5]; [9],540 ng/g
same,concentration at 2 h,[5]; [9],402 ng/g
same,concentration at 4 h,[5]; [9],102 ng/g
same,concentration at 8 h,[5]; [9],52 ng/g
COc1cc2c(cc1OC)CN(CCc1ccc(NC(=O)c3cccc4c(=O)c5cccc(OC)c5[nH]c34)cc1)CC2 [elacridar],average fold increase of CGP74588 accumulation,[2]; inhibitor 1 μM,1.7 fold
same,average fold increase of CGP74588 accumulation,[2]; inhibitor 10 μM,2.3 fold
"C/C=C/C[C@@H](C)C(=O)[C@H]1C(=O)N[C@@H](C(C)C)C(=O)N(C)CC(=O)N(C)[C@@H](CC(C)C)C(=O)N[C@@H](C(C)C)C(=O)N(C)[C@@H](CC(C)C)C(=O)N[C@@H](C)C(=O)N[C@H](C)C(=O)N(C)[C@@H](CC(C)C)C(=O)N(C)[C@@H](CC(C)C)C(=O)N(C)[C@@H](C(C)C)C(=O)N1C [valspodar, [3′-desoxy-3′-oxo-MeBmt]^1-[Val]^2-Ciclosporin A]",average fold increase of CGP74588 accumulation,[2]; inhibitor 1 μM,1.7 fold
same,average fold increase of CGP74588 accumulation,[2]; inhibitor 10 μM,2.3 fold
same,effect on distribution of imatinib into the brain,[6],markedly enhance
same,effect on the elimination slope of unchanged STI571 from brain to blood,[7]; 12.5 mg/kg STI571 and 10 mg/kg PSC833 i.v.,does not significantly modify
same,impact on the plasma pharmacokinetics of imatinib,[7]; valspodar 10 mg/kg i.v. with imatinib 12.5 mg/kg i.v.,no significant impact
